{"source": "patent US5466675A", "about": "“Immunological activity of rhamnolipids” (priority 1992, dated 1995)", "key": {"[1]": {"system": "oxazolone-induced delayed type hypersensitivity", "experiment": "immunostimulation (cellular): oxazolone-induced delayed type hypersensitivity", "assay_type": "in vivo, mouse", "conditions": "IP 100 × 5 mg/kg", "procedure": "The test substance was administered i.p to groups of 5 mice, 1 hour before application (sensitization) of oxazolone (0.1 ml of 5% solution) to the pre-shaven abdominal surface. Seven days later, 25 μl of a 2% solution of oxazolone was applied (challenge) to the right ear, with vehicle being applied to the left ear. After 24 hours, each mouse was sacrificed and ear thickness measured with a Dyer Model micrometer gauge. Greater than 30 percent enhancement is considered immunostimulant activity."}, "Candida albicans [2]": {"system": "Candida albicans", "experiment": "immunorestoration: immunosuppression with cyclophosphamide and infection with Candida albicans", "assay_type": "in vivo, mouse (ICR, female)", "conditions": "for Survivor No.: n = 10", "from_the_text": "[…] One day after the last immunosuppressant dose, the mice were challenged with a suspension of C. albicans sufficient to result in 90 to 100 percent mortality within 10 days in the vehicle treated control group. A greater than 30 percent survival for any drug treated group is considered significant, and possibly a result of immunorestorant activity."}, "phospholipase A2": {"system": "phospholipase A2", "conditions": "Japanese patent No. 63 253 025; cited from earlier work"}, "[3]": {"system": "sheep red blood cell (SRBC) hemagglutination", "experiment": "immunosuppression (humoral): sheep red blood cell (SRBC) hemagglutination", "assay_type": "in vivo, mouse (ICR, female)", "conditions": "IP 30 × 3 mg/kg", "procedure": "(§1) Groups of 6 mice were sensitized by the IV injection of 0.2 ml of a 2% SRBC suspension. On the 9th day following sensitization, blood samples were withdrawn from the orbital sinus and equal parts of complement inactivated serum from the group of 6 mice were pooled to yield a single 0.25 ml sample. Serial 2-fold dilutions were then carried out 10 times in the presence of added complement. […] Serum titers of less than 16 or greater than 128 are considered significant and indicate possible immunosuppressant and immunostimulant activity, respectively.\n(§2) For immunostimulant activity, test substance or vehicle was administered i.p. to groups of mice for 3 consecutive days, and sensitized to SRBCs 2 hours after the third (last) injection. For immunosuppressant activity, test substance or vehicle was administered i.p. to groups of mice for 3 consecutive days beginning 2 hours after sensitization to SRBCs."}, "[4]": {"system": "oxazolone-induced delayed type hypersensitivity", "experiment": "immunosuppression (cellular): oxazolone-induced delayed type hypersensitivity", "assay_type": "in vivo, mouse (ICR, female)", "conditions": "IP 30 × 5 mg/kg", "procedure": "The shaved abdominal surface of groups of 5 mice were sensitized by application of 0.1 ml of 5% oxazolone. The test substance was administered i.p after 1 hour and then daily for 5 consecutive doses. After an additional 4 days, the animals were challenged by application of 25 ul of 5% oxazolone to the right ear. Twenty-four hours later, ear thickness was measured with a Dyer Model micrometer gauge.\nA 50 percent or greater decrease in drug-treated versus control animals is considered significant immunosuppressant activity."}, "[5]": {"system": "sheep red blood cell (SRBC) hemagglutination", "experiment": "immunostimulation (humoral): sheep red blood cell (SRBC) hemagglutination", "assay_type": "in vivo, mouse (ICR, female)", "conditions": "IP 30 × 3 mg/kg", "procedure": "as §1, §2"}, "Candida albicans [6]": {"system": "Candida albicans", "experiment": "immunomodulation: infection with Candida albicans", "assay_type": "in vivo, mouse (ICR, female)", "conditions": "IP 30 mg/kg", "procedure": "The test compound or vehicle was administered i.p. to groups of 10 mice 1 hour before IV, challenge with suspension of C. albicans sufficient to result in 90 to 100% mortality within 10 days in the vehicle treated control group. A greater than 30 percent survival for any treated group is considered very significant, and possibly a result of immunomodulation, while an increase of 20% is considered a moderate immunomodulation activity."}, "[7]": {"conditions": "IP 100 × 3 mg/kg + cyclophosphamide"}, "[8]": {"conditions": "cyclophosphamide alone, PO 30 × 3 mg/kg"}}, "data": [{"compound": "CC(C)(N1CC1C#N)N1CC1C(N)=O", "note": "(stereo not shown) [Azimexone, reference compound]", "values": [{"measurement": "Swelling Inc. %", "setting": "[1]", "result": 31, "unit": "%"}, {"measurement": "Swelling (R -L)", "setting": "[1]; X ± SEM", "result": "22.8 +/- 0.9 × 0.01 mm"}, {"measurement": "ear thickness, Left Ear (No Oxa.)", "setting": "[1]; X ± SEM", "result": "21.4 +/- 0.5 × 0.01 mm"}, {"measurement": "ear thickness, Right Ear (24 hrs Oxa.)", "setting": "[1]; X ± SEM", "result": "44.2 +/- 0.7 × 0.01 mm"}, {"measurement": "Death, days post-inoculum 0-1", "setting": "Candida albicans [2]; [7]", "result": "2 #/10 Mice"}, {"measurement": "Death, days post-inoculum 2-3", "setting": "Candida albicans [2]; [7]", "result": "1 #/10 Mice"}, {"measurement": "Death, days post-inoculum 4-6", "setting": "Candida albicans [2]; [7]", "result": "1 #/10 Mice"}, {"measurement": "Death, days post-inoculum 7-9", "setting": "Candida albicans [2]; [7]", "result": "1 #/10 Mice"}, {"measurement": "Response Inc. %", "setting": "Candida albicans [2]; [7]", "result": 30, "unit": "%"}, {"measurement": "Survivor No.", "setting": "Candida albicans [2]; [7]", "result": 5}]}, {"compound": "rhamnopyranosyldecanoic acid", "values": [{"measurement": "phospholipase A2 inhibition", "setting": "phospholipase A2", "result": "phospholipase A2 inhibition"}]}, {"compound": "O=P1(N(CCCl)CCCl)NCCCO1", "note": "(stereo not shown) [Cyclophosphamide, reference compound]", "values": [{"measurement": "SERUM TITER (Reciprocal Serum Dilution)", "setting": "[3]", "result": 4}, {"measurement": "Swelling Inh. %", "setting": "[4]", "result": 59, "unit": "%"}, {"measurement": "Swelling (R -L)", "setting": "[4]; X +/- SEM", "result": "10.6 +/- 1.8 × 0.01 mm"}, {"measurement": "ear thickness, Left Ear (No Oxa.)", "setting": "[4]; X +/- SEM", "result": "19.0 +/- 0.4 × 0.01 mm"}, {"measurement": "ear thickness, Right Ear (24 hrs Oxa.)", "setting": "[4]; X +/- SEM", "result": "29.6 +/- 2.2 × 0.01 mm"}, {"measurement": "Death, days post-inoculum 0-1", "setting": "Candida albicans [2]; [8]", "result": "3 #/10 Mice"}, {"measurement": "Death, days post-inoculum 2-3", "setting": "Candida albicans [2]; [8]", "result": "2 #/10 Mice"}, {"measurement": "Death, days post-inoculum 4-6", "setting": "Candida albicans [2]; [8]", "result": "2 #/10 Mice"}, {"measurement": "Death, days post-inoculum 7-9", "setting": "Candida albicans [2]; [8]", "result": "1 #/10 Mice"}, {"measurement": "Survivor No.", "setting": "Candida albicans [2]; [8]", "result": 2}]}, {"compound": "c1ccc([C@H]2CN3CCSC3=N2)cc1", "note": "[Levamisole, reference compound]", "values": [{"measurement": "SERUM TITER (Reciprocal Serum Dilution)", "setting": "[5]", "result": 128}, {"measurement": "Death, days post-inoculum 0-1", "setting": "Candida albicans [6]", "result": "3 #/10 Mice"}, {"measurement": "Death, days post-inoculum 2-3", "setting": "Candida albicans [6]", "result": "3 #/10 Mice"}, {"measurement": "Death, days post-inoculum 4-6", "setting": "Candida albicans [6]", "result": "0 #/10 Mice"}, {"measurement": "Death, days post-inoculum 7-9", "setting": "Candida albicans [6]", "result": "0 #/10 Mice"}, {"measurement": "Response Inc. %", "setting": "Candida albicans [6]", "result": 20, "unit": "%"}, {"measurement": "Survivor No.", "setting": "Candida albicans [6]; n = 10", "result": 4}]}]}
